# According to US11339419B2, “Scavenger protein(s) for improved preservation of analyte detection sensor(s) and method(s) of use thereof” (Siemens Healthcare Diagnostics Inc., priority 2017, dated 2022):
# Where “and” joins values, the source holds several entries; their conditions need not be identical. Equal entries are not always repeated.
# Columns and labels:
# Assay type in all cases: biochemical
# [1] = test system: creatininase (BBI Solutions); assay: BBI Solutions Creatininase Enzyme Absorbance with BSA and MIT; conditions: 0 mg/mL BSA
# Procedure: Table 5-8 depict aqueous solutions comprising varying concentrations of BSA (at concentrations of 0 mg/mL, 5 mg/mL, 25 mg/mL, and 50 mg/mL), varying concentrations of MIT (at concentrations of 50 parts per million and 100 parts per million) or Proclin™ 300 (at concentrations of 0.7% and 1.4%) biocide over a particular time period (measurements were taken at days 0, 4, and 14 after exposure of the enzyme(s) to the particular aqueous solutions) and the associated enzyme absorbance measurements for creatininase (commercially offered for sale by BBI Solutions and Toyobo). Absorbance measurements of the creatininase enzyme(s) were taken via spectrophotometer for each aqueous solution (represented as columns 1-5 in Tables 5-8—column 6 is a blank), the absorbance being directly proportional to the enzyme activity being measured-which for Tables 5-8 is creatininase enzyme activity. Accordingly, the higher the absorbance measurement, the higher the enzyme activity of creatininase. Columns 7-11 represent five replicate readings in which the solution only contains BSA (i.e., there is no biocide(s) present in the solution). In addition, the mean values, standard deviations, and coefficients of variation are all presented for the enzyme activity/absorbance of each aqueous solution. All measurements were taken at 37° C.
# As depicted in Table 5, creatininase (commercially offered for sale by BBI Solutions) enzyme activity is measured against various concentrations of MIT (biocide) and BSA (scavenger protein) over a period of 14 days (with absorbance measurement taken at 0, 4, and 14 days) for five different aqueous solutions (represented as columns 1-5—column 6 is a blank).
# creatininase (Toyobo) = assay: Toyobo Creatininase Enzyme Absorbance with BSA and MIT; conditions: 0 mg/mL BSA
# Source text: Absorbance measurements of the creatininase enzyme(s) were taken via spectrophotometer for each aqueous solution (represented as columns 1-5 in Tables 5-8—column 6 is a blank), the absorbance being directly proportional to the enzyme activity being measured-which for Tables 5-8 is creatininase enzyme activity. Accordingly, the higher the absorbance measurement, the higher the enzyme activity of creatininase. Columns 7-11 represent five replicate readings in which the solution only contains BSA (i.e., there is no biocide(s) present in the solution). In addition, the mean values, standard deviations, and coefficients of variation are all presented for the enzyme activity/absorbance of each aqueous solution. All measurements were taken at 37° C.
# As depicted in Table 6, creatininase (commercially offered for sale by Toyobo) enzyme activity is measured against various concentrations of MIT (biocide) and BSA (scavenger protein) over a period of 14 days (with absorbance measurement taken at 0, 4, and 14 days) for five different aqueous solutions (represented as columns 1-5—column 6 is a blank).
# [2] = test system: sarcosine oxidase (BBI Solutions); assay: BBI Solutions Sarcosine Oxidase Enzyme Absorbance with BSA and MIT; conditions: 0 mg/mL BSA; for Sarcosine Oxidase Enzyme Absorbance, MEAN of 1-5 / Sarcosine Oxidase Enzyme Absorbance, solutions 1-5: 37° C.
# Procedure: (§1) Tables 1-4 depict aqueous solutions comprising varying concentrations of BSA (at concentrations of 0 mg/mL, 5 mg/mL, 25 mg/mL, and 50 mg/mL), varying concentrations of MIT (at concentrations of 50 parts per million and 100 parts per million) or Proclin™ 300 (at concentrations of 0.7% and 1.4%) biocides over a particular time period (measurements were taken at days 0, 4, and 14 after exposure of the enzyme(s) to the aqueous solutions) and the associated enzyme absorbance measurements for sarcosine oxidase (commercially offered for sale by BBI Solutions and Toyobo). Absorbance measurements of the sarcosine oxidase enzyme(s) were taken via spectrophotometer for each aqueous solution (represented as columns 1-5 in Tables 1-4—column 6 is a blank), the absorbance being directly proportional to the enzyme activity being measured-which for Tables 1-4 is sarcosine oxidase enzyme activity. Accordingly, the higher the absorbance measurement, the higher the enzyme activity of sarcosine oxidase. Columns 7-11 represent five replicate readings in which the aqueous solution only contains BSA (i.e., there is no biocide(s) present in the aqueous solution). In addition, the mean values, standard deviations, and coefficients of variation are also presented for the enzyme activity/absorbance of each aqueous solution. All measurements were taken at 37° C.
# As depicted below in Table 1, sarcosine oxidase (commercially offered for sale by BBI Solutions) enzyme activity is measured against various concentrations of MIT (biocide) and BSA (scavenger protein) over a period of 14 days (with absorbance measurements taken at 0, 4, and 14 days) for five different aqueous solutions (represented as columns 1-5—column 6 is a blank).
# [3] = test system: sarcosine oxidase (Toyobo); assay: Toyobo Sarcosine Oxidase Enzyme Absorbance with BSA and MIT; conditions: 0 mg/mL BSA; for Sarcosine Oxidase Enzyme Absorbance, MEAN of 1-5 / Sarcosine Oxidase Enzyme Absorbance, solutions 1-5: 37° C.
# Procedure: as §1
# As depicted below in Table 2, sarcosine oxidase (commercially offered for sale by Toyobo) enzyme activity is measured against various concentrations of MIT (biocide) and BSA (scavenger protein) over a period of 14 days (with absorbance measurements taken at 0, 4, and 14 days) for five different aqueous solutions (represented as columns 1-5-column 6 is a blank).
compound,measurement,setting,value
"Cn1sccc1=O [MIT, methylisothiazolinone, reference compound]",% Bias,"[1]; Day 0, 50 ppm MIT vs no MIT",4.1%
same,Creatininase Enzyme Absorbance,"[1]; Day 0, 50 ppm MIT",0.663 and 0.662 and 0.668 and 0.62 and 0.649
same,MEAN,"[1]; Day 0, 50 ppm MIT",0.45
same,% Bias,"[1]; Day 0, 100 ppm MIT vs no MIT",0.7%
same,Creatininase Enzyme Absorbance,"[1]; Day 0, 100 ppm MIT",0.765 and 0.721 and 0.731 and 0.712 and 0.723
same,MEAN,"[1]; Day 0, 100 ppm MIT",0.53
same,% Bias,"[1]; Day 4, 50 ppm MIT vs no MIT",3.3%
same,Creatininase Enzyme Absorbance,"[1]; Day 4, 50 ppm MIT",0.654 and 0.633 and 0.52 and 0.638
same,MEAN,"[1]; Day 4, 50 ppm MIT",0.41
same,% Bias,"[1]; Day 4, 100 ppm MIT vs no MIT",−2.3%
same,Creatininase Enzyme Absorbance,"[1]; Day 4, 100 ppm MIT",0.616 and 0.604 and 0.597 and 0.523
same,MEAN,"[1]; Day 4, 100 ppm MIT",0.38
same,% Bias,"[1]; Day 14, 50 ppm MIT vs no MIT",−6.5%
same,Creatininase Enzyme Absorbance,"[1]; Day 14, 50 ppm MIT",0.732 and 0.689 and 0.701 and 0.686 and 0.725
same,MEAN,"[1]; Day 14, 50 ppm MIT",0.44
same,% Bias,"[1]; Day 14, 100 ppm MIT vs no MIT",7.0%
same,Creatininase Enzyme Absorbance,"[1]; Day 14, 100 ppm MIT",0.755 and 0.699 and 0.714 and 0.707 and 0.716
same,MEAN,"[1]; Day 14, 100 ppm MIT",0.45
same,% Bias,"creatininase (Toyobo); Day 0, 50 ppm MIT vs no MIT",10.4%
same,Creatininase Enzyme Absorbance,"creatininase (Toyobo); Day 0, 50 ppm MIT",0.846 and 0.775 and 0.735 and 0.721 and 0.713
same,MEAN,"creatininase (Toyobo); Day 0, 50 ppm MIT",0.56
same,% Bias,"creatininase (Toyobo); Day 0, 100 ppm MIT vs no MIT",3.8%
same,Creatininase Enzyme Absorbance,"creatininase (Toyobo); Day 0, 100 ppm MIT",0.937 and 0.871 and 0.866 and 0.827 and 0.836
same,MEAN,"creatininase (Toyobo); Day 0, 100 ppm MIT",0.67
same,% Bias,"creatininase (Toyobo); Day 4, 50 ppm MIT vs no MIT",12.2%
same,Creatininase Enzyme Absorbance,"creatininase (Toyobo); Day 4, 50 ppm MIT",0.777 and 0.754 and 0.767 and 0.743 and 0.77
same,MEAN,"creatininase (Toyobo); Day 4, 50 ppm MIT",0.55
same,% Bias,"creatininase (Toyobo); Day 4, 100 ppm MIT vs no MIT",9.8%
same,Creatininase Enzyme Absorbance,"creatininase (Toyobo); Day 4, 100 ppm MIT",0.745 and 0.768 and 0.763 and 0.748 and 0.792
same,MEAN,"creatininase (Toyobo); Day 4, 100 ppm MIT",0.55
same,% Bias,"creatininase (Toyobo); Day 14, 50 ppm MIT vs no MIT",9.3%
same,Creatininase Enzyme Absorbance,"creatininase (Toyobo); Day 14, 50 ppm MIT",0.828 and 0.801 and 0.702 and 0.794 and 0.79
same,MEAN,"creatininase (Toyobo); Day 14, 50 ppm MIT",0.55
same,% Bias,"creatininase (Toyobo); Day 14, 100 ppm MIT vs no MIT",5.1%
same,Creatininase Enzyme Absorbance,"creatininase (Toyobo); Day 14, 100 ppm MIT",0.794 and 0.774 and 0.784 and 0.73 and 0.78
same,MEAN,"creatininase (Toyobo); Day 14, 100 ppm MIT",0.54
same,% Bias,"[2]; Day 0, 50 ppm MIT vs no MIT",3.8%
same,"Sarcosine Oxidase Enzyme Absorbance, MEAN of 1-5","[2]; Day 0, 50 ppm MIT",1.43
same,"Sarcosine Oxidase Enzyme Absorbance, solutions 1-5","[2]; Day 0, 50 ppm MIT",1.463 and 1.459 and 1.507 and 1.474 and 1.477
same,% Bias,"[2]; Day 0, 100 ppm MIT vs no MIT",1.3%
same,"Sarcosine Oxidase Enzyme Absorbance, MEAN of 1-5","[2]; Day 0, 100 ppm MIT",1.39
same,"Sarcosine Oxidase Enzyme Absorbance, solutions 1-5","[2]; Day 0, 100 ppm MIT",1.446 and 1.428 and 1.422 and 1.427 and 1.423
same,% Bias,"[2]; Day 4, 50 ppm MIT vs no MIT",1.5%
same,"Sarcosine Oxidase Enzyme Absorbance, MEAN of 1-5","[2]; Day 4, 50 ppm MIT",1.35
same,"Sarcosine Oxidase Enzyme Absorbance, solutions 1-5","[2]; Day 4, 50 ppm MIT",1.388 and 1.397 and 1.401 and 1.346 and 1.368
same,% Bias,"[2]; Day 4, 100 ppm MIT vs no MIT",2.0%
same,"Sarcosine Oxidase Enzyme Absorbance, MEAN of 1-5","[2]; Day 4, 100 ppm MIT",1.35
same,"Sarcosine Oxidase Enzyme Absorbance, solutions 1-5","[2]; Day 4, 100 ppm MIT",1.38 and 1.379 and 1.384 and 1.353
same,% Bias,"[2]; Day 14, 50 ppm MIT vs no MIT",−8.8%
same,"Sarcosine Oxidase Enzyme Absorbance, MEAN of 1-5","[2]; Day 14, 50 ppm MIT",0.24
same,"Sarcosine Oxidase Enzyme Absorbance, solutions 1-5","[2]; Day 14, 50 ppm MIT",0.272 and 0.267 and 0.265 and 0.283 and 0.286
same,% Bias,"[2]; Day 14, 100 ppm MIT vs no MIT",−34.1%
same,"Sarcosine Oxidase Enzyme Absorbance, MEAN of 1-5","[2]; Day 14, 100 ppm MIT",0.18
same,"Sarcosine Oxidase Enzyme Absorbance, solutions 1-5","[2]; Day 14, 100 ppm MIT",0.218 and 0.215 and 0.21 and 0.214 and 0.219
same,% Bias,"[3]; Day 0, 50 ppm MIT vs no MIT",0.8%
same,"Sarcosine Oxidase Enzyme Absorbance, MEAN of 1-5","[3]; Day 0, 50 ppm MIT",1.42
same,"Sarcosine Oxidase Enzyme Absorbance, solutions 1-5","[3]; Day 0, 50 ppm MIT",1.463 and 1.462 and 1.447 and 1.446
same,% Bias,"[3]; Day 0, 100 ppm MIT vs no MIT",2.6%
same,"Sarcosine Oxidase Enzyme Absorbance, MEAN of 1-5","[3]; Day 0, 100 ppm MIT",1.44
same,"Sarcosine Oxidase Enzyme Absorbance, solutions 1-5","[3]; Day 0, 100 ppm MIT",1.491 and 1.45 and 1.5 and 1.478 and 1.464
same,% Bias,"[3]; Day 4, 50 ppm MIT vs no MIT",101.5%
same,"Sarcosine Oxidase Enzyme Absorbance, MEAN of 1-5","[3]; Day 4, 50 ppm MIT",0.25
same,"Sarcosine Oxidase Enzyme Absorbance, solutions 1-5","[3]; Day 4, 50 ppm MIT",0.277 and 0.275 and 0.272 and 0.283 and 0.282
same,% Bias,"[3]; Day 4, 100 ppm MIT vs no MIT",115.9%
same,"Sarcosine Oxidase Enzyme Absorbance, MEAN of 1-5","[3]; Day 4, 100 ppm MIT",0.27
same,"Sarcosine Oxidase Enzyme Absorbance, solutions 1-5","[3]; Day 4, 100 ppm MIT",0.302 and 0.304 and 0.298 and 0.317
same,% Bias,"[3]; Day 14, 50 ppm MIT vs no MIT",7.4%
same,"Sarcosine Oxidase Enzyme Absorbance, MEAN of 1-5","[3]; Day 14, 50 ppm MIT",0.11
same,"Sarcosine Oxidase Enzyme Absorbance, solutions 1-5","[3]; Day 14, 50 ppm MIT",0.154 and 0.153 and 0.151 and 0.159 and 0.16
same,% Bias,"[3]; Day 14, 100 ppm MIT vs no MIT",8.8%
same,"Sarcosine Oxidase Enzyme Absorbance, MEAN of 1-5","[3]; Day 14, 100 ppm MIT",0.13
same,"Sarcosine Oxidase Enzyme Absorbance, solutions 1-5","[3]; Day 14, 100 ppm MIT",0.163 and 0.176 and 0.168 and 0.172
